# Data reported in US7169604B1, “Method for PR-39 peptide mediated selective inhibition of IκBα degradation” (Beth Israel Deaconess Medical Center, priority 1998, dated 2007).
# Ends that are not written are not given here.
# Assays:
# [1] = target: T1, 20S proteasome (Homo sapiens, UniProt P25788); assay: Co-immunoprecipitation of PR-39 and 20S subunits in ECV cells; assay type: binding; conditions: ECV304 cells transfected with PR-39 constructs; anti-PR-39 antibody
# T1 construct: endogenous in cells; host or cells: ECV304 cells stably expressing porcine PR-39 constructs
# From the text: In order to confirm that PR-39 and the a7 subunit interact in cells, a polyclonal anti-PR-39 antibody was used to immunoprecipitate PR-39 protein from EVC304 cells transfected with cDNA constructs corresponding either to the full length (EVC-PR-39) or exon 4 (39 amino acid C-terminal domain) (ECV-E4) of the porcine PR-39 gene.
# Full-length porcine cDNA (containing the leader sequence) and a cDNA construct corresponding to the 4th exon of porcine PR-39 gene were cloned into eukaryotic expression vector pGRE5-2 (USB) and used to stably transfect an immortalized human endothelial cell line (ECV304, ATCC). For co-immunoprecipitation, wild type ECV, full-length PR-39 (ECV-PR-39) and exon 4 PR-39 (ECV-E4) transfected cells were cultured in 10% FBS-M199. Cells were lysed with the RIPA buffer, and equal amounts of total protein were pre-cleared with non-immune rabbit serum and protein G plus/protein A-agarose beads (Calbiochem). The cleared samples were incubated at 4° C. overnight with 20 μl of polyclonal anti-PR-39 antibody and 40 μl of protein G plus/protein A-agarose beads or with the beads alone. […]
# [2] = system: IκBα; assay: TNF-α induced degradation of IκBα in U937 cells; assay type: cell-based, human; conditions: 45 min pretreatment with 100 nM, TNF-α 1 ng/ml, 10 min
# Description: Tumor necrosis factor (TNF)-α is known to induce rapid degradation of IκBα by the Ub-proteasome pathway.
# As shown by FIG. 1E, PR-39 prevents TNF-a induced degradation of IκBα. U937 cells were cultured in 10% FBs-RPMI medium in the absence (−) or presence of TNF-a (1 ng/ml). 10 min following TNF-α addition, the cells were washed and IκBα protein levels assessed by Western blotting.
# Note that a […] 45 min of pretreatment with 100 nM of PR-39 or 10 μM of MG132 or lactacystin (LC) prior to addition of blocked TNF-α, blocked cytokine-induced degradation of IκBα expression.
# [3] = system: NFκB; assay: NFκB electromobility shift assay in mouse pancreas, caerulein-induced pancreatitis; assay type: in vivo; conditions: 10 mg/kg i.v. 1 hour before caerulein; 30 min later
# [4] = system: ICAM-1 and VCAM-1; assay: ICAM-1 and VCAM-1 expression in mouse infarct model; assay type: in vivo; conditions: transgenic αMHC-PR-39 mice vs control mice, coronary artery ligation, 1, 3 or 7 days
# From the text: NFκB-dependent transcription is also activated following induction of ischemia in the heart, leading to increased expression of several adhesion molecules, including ICAM-1 and VCAM-1. To test the effect of PR-39 peptide on NFκB-dependent gene expression in this model, we assessed VCAM-1 and ICAM-1 protein levels following induction of myocardial infarction in transgenic mice expressing PR-39 cDNA in cardiac myocytes (αMHC-PR-39) and age-matched control mice. The result is given by FIG. 2D.
# Transgenic mice stably expressing PR-39 in cardiac myocytes (αMHC-PR-39 mice) or litter mate controls (control mice) were subjected to acute coronary artery ligation as described (30) and randomized to intraperitoneal implantation of Alzet minipumps (Alza Corp, Palo Alto, Calif.) delivering 1 μg/kg/24 hr of PR-39 or buffer. Myocardial tissues collected 1, 3 or 7 days later were subjected to Western blot analysis for ICAM-1 and VCAM-1 gene expression that were normalized to expression levels prior to induction of infarction. Note the rapid increase in both ICAM-1 and VCAM-1 expression in control but not αMHC-PR-39 mice.
# In contrast, induction of myocardial infarction had no effect on either ICAA-1 or VCAM-1 protein levels in αMHC-PR-39 mice.
# [5] = system: U937 cells; assay: Proteasome-dependent degradation of total cellular proteins (35S Met pulse-chase); assay type: cell-based, human; conditions: 10 μM, 1 hr chase, chloroquin 45 μM, after 16 hr metabolic labeling
# Description: Therefore the extent of degradation of long-lived cell proteins before or following exposure was compared to either PR-39 or MG132. The result is given by FIG. 3A.
# Exponentially proliferating U937 cells were grown in 10% FBS-RPMI 1640 methionine-free medium supplemented with 200 μCi ^35S Met for 16 hr. Cells were then washed with complete RPMI 1640 medium 3 times and cultured in 10% FBS-RPMI (chase) in the presence of 10 μM of either PR-39 or MG132 or an equal volume of PBS. Chloroquin (45 μM) was added to all cultures to prevent the lysosomal protein degradation. 1 hr later the cells were lysed, and TCA soluble ^35S counts were measured in a liquid scintillation counter (LKB). All experiments were carried out in triplicate and repeated three times. The data are shown as mean±standard deviation.
# [6] = target: T2, IκBα-VCP (Homo sapiens, UniProt P25963+P55072); assay: IκBα-VCP binding (IκBα immunoprecipitation, anti-VCP Western blot) in ECV304 cells; assay type: cell-based; conditions: wild type ECV304 cells, 10 μM pretreatment, TNF-α 1 ng/ml
# T2 construct: endogenous in cells; host or cells: wild type ECV304
# T2 sequence (P25963 whole entry): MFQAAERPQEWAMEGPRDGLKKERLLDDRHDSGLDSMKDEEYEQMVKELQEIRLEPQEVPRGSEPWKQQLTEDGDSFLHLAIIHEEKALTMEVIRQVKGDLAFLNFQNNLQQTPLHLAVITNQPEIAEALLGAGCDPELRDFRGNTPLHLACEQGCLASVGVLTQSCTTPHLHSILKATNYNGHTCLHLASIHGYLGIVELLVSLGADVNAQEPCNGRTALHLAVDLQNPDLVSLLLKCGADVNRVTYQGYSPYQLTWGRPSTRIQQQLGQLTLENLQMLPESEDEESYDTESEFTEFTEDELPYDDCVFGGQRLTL
# T2 sequence (P55072 2-806 limits assumed): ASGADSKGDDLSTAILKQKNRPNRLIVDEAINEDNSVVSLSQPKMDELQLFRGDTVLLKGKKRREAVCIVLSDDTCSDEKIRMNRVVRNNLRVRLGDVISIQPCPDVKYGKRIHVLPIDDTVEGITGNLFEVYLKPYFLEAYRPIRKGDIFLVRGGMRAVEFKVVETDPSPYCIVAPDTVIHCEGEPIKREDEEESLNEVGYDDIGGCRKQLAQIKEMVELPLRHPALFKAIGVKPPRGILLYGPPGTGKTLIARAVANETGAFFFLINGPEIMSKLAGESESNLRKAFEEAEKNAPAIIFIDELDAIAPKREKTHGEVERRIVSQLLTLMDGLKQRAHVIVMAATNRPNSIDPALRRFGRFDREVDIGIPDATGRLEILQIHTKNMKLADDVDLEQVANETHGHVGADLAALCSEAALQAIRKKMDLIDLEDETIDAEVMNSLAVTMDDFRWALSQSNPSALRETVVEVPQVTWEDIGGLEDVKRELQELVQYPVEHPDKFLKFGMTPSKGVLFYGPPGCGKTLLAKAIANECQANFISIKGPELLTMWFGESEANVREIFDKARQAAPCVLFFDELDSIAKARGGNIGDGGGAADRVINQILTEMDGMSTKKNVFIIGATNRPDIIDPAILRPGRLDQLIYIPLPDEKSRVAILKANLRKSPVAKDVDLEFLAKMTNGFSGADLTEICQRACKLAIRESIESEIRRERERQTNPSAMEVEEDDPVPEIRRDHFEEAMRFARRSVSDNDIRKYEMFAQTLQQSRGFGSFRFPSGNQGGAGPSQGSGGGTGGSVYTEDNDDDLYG
# From the text: Wild type ECV304 cells (treated as described in FIG. 4C) were subjected to immunoprecipitation with anti-IκBα antibody (IκBα-IP) followed by Western blotting with anti-VCP-3 antibody (1:3000, dilution; a kind gift of Dr. C. C. Li (NIH)). Note the presence of 90 kD VCP band in the presence or absence of PR-39 treatment.
# Pretreatment with PR-39 increased the amount of VCP in the IκBα immunoprecipitate (FIG. 4D) as would be expected given the increased amount of ubiquitinated forms of IκBα in the PR-39-treated cells.
sequence,measurement,setting,value
RRRPRPPYLPRPRPPPFFPPRLPPRIPPGFPPRFPPRFP [PR-39],binding to 20S proteasome (co-immunoprecipitation of α7 and α2 subunits),[1],can bind to the 20S proteasome particle via an interaction with the a7 subunit
same,TNF-α caused decline of the level of IκBα,[2],markedly reduced
same,NFκB gel shift in mouse pancreas,[3],almost complete disappearance of NFκB gel shift
same,NFκB-dependent gene expression (ICAM-1 and VCAM-1 protein levels),[4],blocks NFκB-dependent gene expression
same,inhibition of total cell protein degradation,[5],little or no effect
same,IκBα-VCP binding,[6],does not inhibit IκBα-VCP binding
